Assay results: patent US10669284B2, “Fused thiazolopyrimidine derivatives as MNKS inhibitors” (LIFEARC, priority 2015, dated 2020)
Read-outs that look alike come from different tables or passages of the source.

Assays:
Full-length human MNK1 = target: T1, Full-length human MNK1 (Homo sapiens, UniProt Q9BUB5, T385D); test: MNK1 biochemical IC50 assay (Caliper Mobility Shift Assay)
T1 construct: GST (N); purchased Carna Biosciences 02-145; host or cells: baculovirus expression system
From the text: (§1) The phosphorylated peptide product and unphosphorylated peptide substrate were detected using a Caliper Mobility Shift Assay using the Caliper LabChip EZ Reader II.
(§2) The Caliper Mobility Shift Assay technology is based on the utilisation of a microfluidic chip to measure the conversion of a fluorescent non-phosphorylated peptide substrate to phosphorylated product by electrophoresis separation of substrate and product and detection via Laser-induced fluorescence. The LabChip EZ Reader software calculates the relative heights of substrate and product peaks and reports the peak ratio (Product peak(P) divided by the sum of Product peak(P) and Substrate peak(S)). The percent-conversion is calculated as 100×[(P/(P+S)]. All assays were set up to run in the linear phase with a maximum of 10 percent substrate conversion.
(§3) These were N-terminal GST fusion proteins expressed in baculovirus expression system and purified by glutathione sepharose affinity chromatography. […] All other assay reagents were sourced from Sigma.
Compounds were serially diluted in DMSO to generate a 10-point half log dilution curve with a final top concentration of 100 uM in the assay. […] Compounds were pre-incubated with enzyme and peptide in reaction buffer for 30 mins prior to addition of ATP to initiate the reaction. Final assay concentrations were 3 nM MNK1, 2 uM peptide substrate, 50 uM ATP, 50 mM Hepes pH 7.0, 0.01% BSA, 10 mM MgCl2, 1 mM dithiothrietol.
(§4) The assay incubation times were adjusted depending on the concentration of ATP used. Assays were performed at low (50 uM) and high (1 mM) ATP. The low ATP values were selected to run at Km conditions for the standard assay to allow relative potencies to be compared across other kinases. The high ATP concentration was selected as representative of cellular ATP concentrations, and for an indication of ATP competition, where a significant shift (greater than half log) in apparent potency would be expected compared to Km conditions. All IC50 values reported are the average of at least two independent experiments.

Full-length human MNK2 = target: T2, Full-length human MNK2 (Homo sapiens, UniProt Q9HBH9, T379D); test: MNK2 biochemical IC50 assay (Caliper Mobility Shift Assay)
T2 construct: GST (N); purchased Carna Biosciences 02-146; host or cells: baculovirus expression system
From the text: as §1, §2, §3, §4
Reactions were performed as above using 10 nM MNK2 in the assay. Standard assays contained 50 uM ATP and high concentration ATP assays contained 1 mM ATP. […] All other conditions were the same.

[1] = tested on: phosphorylation of eIF4E at ser209 in MV4.11 cell line; test: MNK cellular activity phospho-eIF4E detection assay (Alphascreen Surefire); assay type: cell-based; conditions: Homo sapiens; MV4.11 cell line, phospho-eIF4E (ser209) Alphascreen Surefire; read-out: P(IC50) elF4E (converted)
Description: The assay detection is based on the formation of sandwich antibody complexes coupled to donor and acceptor beads. Excitation at 680 nm causes the transfer of a singlet oxygen species between donor and acceptor beads when they are in close proximity by binding to the analyte ([…]), which results in the emission of light at 520-620 nm.
Cells were then lysed and the Alphascreen Surefire protocol followed according to manufacturer's recommendations. 8 ul Acceptor beads (1:50 dilution in kit activation buffer) was added to lysate, shaken 150 rpm for 2 min and incubated for 1.5 hr at room temperature. 3 ul Donor beads (1:20 dilution in kit dilution buffer) were then added, shaken 150 rpm for 2 min and incubated for a further 1.5 hr at room temperature after which the plates were read on Pherastar FS using Alphascreen optic module.
Data were normalised relative to untreated DMSO only controls and curves repeated in duplicate within experiments. Data reported are averages of at least 2 independent experiments.

[2] = read-out: P(IC50) MNK1 (converted)
[3] = read-out: P(IC50) MNK2 (converted)

T2 sequence (Q9HBH9 whole entry T379D): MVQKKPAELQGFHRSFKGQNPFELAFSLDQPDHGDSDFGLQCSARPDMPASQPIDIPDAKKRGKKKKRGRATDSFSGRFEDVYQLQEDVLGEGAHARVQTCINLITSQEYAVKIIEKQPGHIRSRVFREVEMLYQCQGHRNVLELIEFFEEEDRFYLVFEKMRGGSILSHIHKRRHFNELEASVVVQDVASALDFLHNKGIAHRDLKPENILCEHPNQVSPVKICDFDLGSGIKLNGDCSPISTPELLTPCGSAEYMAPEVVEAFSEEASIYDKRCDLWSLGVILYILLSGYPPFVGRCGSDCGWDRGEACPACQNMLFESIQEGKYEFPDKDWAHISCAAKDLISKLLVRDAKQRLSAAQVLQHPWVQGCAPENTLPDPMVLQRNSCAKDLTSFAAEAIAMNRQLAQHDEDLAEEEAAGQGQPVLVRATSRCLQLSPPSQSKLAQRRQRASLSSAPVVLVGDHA
T1 sequence (Q9BUB5 1-424 isoform Q9BUB5-2 T344D): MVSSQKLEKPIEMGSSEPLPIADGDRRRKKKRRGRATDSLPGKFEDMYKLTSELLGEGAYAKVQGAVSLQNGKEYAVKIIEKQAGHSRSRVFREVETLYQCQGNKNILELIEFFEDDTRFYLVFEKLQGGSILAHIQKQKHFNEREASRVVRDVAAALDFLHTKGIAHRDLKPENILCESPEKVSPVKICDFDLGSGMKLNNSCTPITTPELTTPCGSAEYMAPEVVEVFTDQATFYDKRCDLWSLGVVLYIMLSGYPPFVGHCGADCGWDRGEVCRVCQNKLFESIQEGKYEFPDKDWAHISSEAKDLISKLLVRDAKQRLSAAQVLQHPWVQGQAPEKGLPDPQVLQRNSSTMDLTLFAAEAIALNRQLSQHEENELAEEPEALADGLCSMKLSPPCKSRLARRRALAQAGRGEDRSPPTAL

Compound Fc1ccc2c(c1)CCN2c1ncnc2sc(N3CCOCC3)nc12 [Example 87, 4-[7-(5-fluoroindolin-1-yl)thiazolo[5,4-d]pyrimidin-2-yl]morpholine] has an IC50 (Full-length human MNK1; [2]) of 126 nM, an IC50 (Full-length human MNK2; [3]) of 79.4 nM and an IC50 [1] of 200 nM.

Work on CC(C)Oc1cc(F)ccc1Nc1ncnc2sc(C(=O)NC3CNC3)nc12 [Example 28, N-(azetidin-3-yl)-7-{[4-fluoro-2-(propan-2-yloxy)phenyl]amino}[1,3]thiazolo[5,4-d]pyrimidine-2-carboxamide] yielded an IC50 (Full-length human MNK1; [2]) of 126 nM, an IC50 (Full-length human MNK2; [3]) of 79.4 nM and an IC50 [1] of 79.4 nM.

Compound CN(C)CCC1CN(c2ncnc3sc(C(=O)NC4CCOCC4)nc23)c2ccc(F)cc21 (stereo not shown) [Example 148, 7-[3-[2-(dimethyl-amino)ethyl]-5-fluoro-indolin-1-yl]-N-tetrahydro-pyran-4-yl-thiazolo[5,4-d]pyrimidine-2-carboxamide] has an IC50 (Full-length human MNK1; [2]) of 50.1 nM, an IC50 (Full-length human MNK2; [3]) of 63.1 nM and an IC50 [1] of 63.1 nM.

Work on CNC(=O)c1nc2c(N3CC(C)c4ccccc43)ncnc2s1 (stereo not shown) [Example 156, N-methyl-7-(3-methylindolin-1-yl)thiazolo[5,4-d]pyrimidine-2-carboxamide] yielded an IC50 (Full-length human MNK1; [2]) of 10 nM, an IC50 (Full-length human MNK2; [3]) of 7.94 nM and an IC50 [1] of 5.01 nM.

For CNCCC1(C)CN(c2ncnc3sc(C(=O)NC4CCOCC4)nc23)c2ccccc21 (stereo not shown) [Example 118, 7-[3-Methyl-3-[2-(methylamino)ethyl]indolin-1-yl]-N-tetrahydropyran-4-yl-thiazolo[5,4-d]pyrimidine-2-carboxamide], the IC50 (Full-length human MNK1; [2]) was 126 nM, the IC50 (Full-length human MNK2; [3]) was 158 nM and the IC50 [1] was 251 nM.

With CC(C)Oc1cc(F)ccc1Nc1ncnc2sc(C(=O)N3CCC(CCO)CC3)nc12 [Example 11, [7-(4-fluoro-2-isopropoxy-anilino)thiazolo[5,4-d]pyrimidin-2-yl]-[4-(2 hydroxyethyl)-1-piperidyl]methanone] the IC50 (Full-length human MNK1; [2]) was 398 nM, the IC50 (Full-length human MNK2; [3]) was 316 nM and the IC50 [1] was 316 nM.

NCC1CN(c2ncnc3sc(C(=O)NC4CCOCC4)nc23)c2ccccc21 (stereo not shown) [Example 119, 7-[3-(Aminomethyl)indolin-1-yl]-N-tetrahydropyran-4-yl-thiazolo[5,4-d]pyrimidine-2-carboxamide] was tested, and the IC50 (Full-length human MNK1; [2]) was 12.6 nM, the IC50 (Full-length human MNK2; [3]) was 15.8 nM and the IC50 [1] was 20 nM.

CN1CCN(c2ncnc3sc(C(=O)NCC4CCNCC4)nc23)c2ccc(F)cc21 [Example 57, 7-(6-fluoro-4-methyl-2,3-dihydroquinoxalin-1-yl)-N-(4-piperidylmethyl)thiazolo[5,4-d]pyrimidine-2-carboxamide] showed an IC50 (Full-length human MNK1; [2]) of 251 nM, an IC50 (Full-length human MNK2; [3]) of 251 nM and an IC50 [1] of 251 nM.

O=C(NCCCn1cccn1)c1nc2c(N3CCc4cc(F)ccc43)ncnc2s1 [Example 75, 7-(5-fluoroindolin-1-yl)-N-(3-pyrazol-1-ylpropyl)thiazolo[5,4-d]pyrimidine-2-carboxamide] was tested, and the IC50 (Full-length human MNK1; [2]) was 3.16 nM, the IC50 (Full-length human MNK2; [3]) was 3.16 nM and the IC50 [1] was 15.8 nM.

OCc1nc2c(N3CCc4cc(F)ccc43)ncnc2s1 [Example 81, [7-(5-Fluoroindolin-1-yl)thiazolo[5,4-d]pyrimidin-2-yl]methanol] gave an IC50 (Full-length human MNK1; [2]) of 39.8 nM, an IC50 (Full-length human MNK2; [3]) of 20 nM and an IC50 [1] of 100 nM.

With C[C@H]1Cc2ccccc2N1c1ncnc2sc(C(=O)NC3CCOCC3)nc12 [Example 133, 7-[(2S)-2-methylindolin-1-yl]-N-tetrahydropyran-4-yl-thiazolo[5,4-d]pyrimidine-2-carboxamide] the IC50 (Full-length human MNK1; [2]) was 79.4 nM, the IC50 (Full-length human MNK2; [3]) was 39.8 nM and the IC50 [1] was 50.1 nM.

O=C(NC1CCNCC1)c1nc2c(N3CCc4ccccc43)ncnc2s1 [Example 98, 7-indolin-1-yl-N-(4-piperidyl)thiazolo[5,4-d]pyrimidine-2-carboxamide] showed an IC50 (Full-length human MNK1; [2]) of 3.16 nM, an IC50 (Full-length human MNK2; [3]) of 3.98 nM and an IC50 [1] of 3.98 nM.

Compound CC(C)Oc1cc(F)ccc1Nc1ncnc2sc(C(=O)NCCCN3CCCC3)nc12 [Example 13, 7-(4-fluoro-2-isopropoxy-anilino)-N-(3-pyrrolidin-1-ylpropyl)thiazolo[5,4-d]pyrimidine-2-carboxamide] has an IC50 (Full-length human MNK1; [2]) of 50.1 nM, an IC50 (Full-length human MNK2; [3]) of 39.8 nM and an IC50 [1] of 39.8 nM.

With CN1CCC2(CC1)CN(c1ncnc3sc(C(=O)NC4CCOCC4)nc13)c1ccccc12 [Example 40, 7-(1′-Methylspiro[indole-3,4′-piperidin]-1(2H)-yl)-N-(tetrahydro-2H-pyran-4-yl)[1,3]thiazolo[5,4-d]pyrimidine-2-carboxamide] the IC50 (Full-length human MNK1; [2]) was 12.6 nM, the IC50 (Full-length human MNK2; [3]) was 20 nM and the IC50 [1] was 50.1 nM.

In the case of CC(C)Oc1cc(F)ccc1Nc1ncnc2sc(C(=O)NCC(O)CO)nc12 (stereo not shown) [Example 12, N-(2,3-dihydroxypropyl)-7-(4-fluoro-2-isopropoxy-anilino)thiazolo[5,4-d]pyrimidine-2-carboxamide], the IC50 (Full-length human MNK1; [2]) is reported as 126 nM, the IC50 (Full-length human MNK2; [3]) is reported as 63.1 nM and the IC50 [1] is reported as 50.1 nM.

CNC(=O)c1nc2c(N3CCc4cc(C(F)(F)F)ccc43)ncnc2s1 [Example 158] was tested, and the IC50 (Full-length human MNK1; [2]) was 316 nM, the IC50 (Full-length human MNK2; [3]) was 126 nM and the IC50 [1] was 501 nM.

For O=C(NC1CCOCC1)c1nc2c(N3CCc4cnccc43)ncnc2s1 [Example 43, 7-(2,3-Dihydro-1H-pyrrolo[3,2-c]pyridin-1-yl)-N-(tetrahydro-2H-pyran-4-yl)[1,3]thiazolo[5,4-d]pyrimidine-2-carboxamide], the IC50 (Full-length human MNK1; [2]) was 39.8 nM, the IC50 (Full-length human MNK2; [3]) was 31.6 nM and the IC50 [1] was 25.1 nM.

CC(C)Oc1cc(F)ccc1Nc1ncnc2sc(C(=O)NCCCN(C)C)nc12 [Example 3, N-[3-(Dimethylamino)propyl]-7-(4-fluoro-2-isopropoxy-anilino)thiazolo[5,4-d]pyrimidine-2-carboxamide] was tested, and the IC50 (Full-length human MNK1; [2]) was 63.1 nM, the IC50 (Full-length human MNK2; [3]) was 50.1 nM and the IC50 [1] was 50.1 nM.

COc1ccc2c(c1)CCN2c1ncnc2sc(C(=O)NCC3CCNCC3)nc12 [Example 63, 7-(5-methoxyindolin-1-yl)-N-(4-piperidylmethyl)thiazolo[5,4-d]pyrimidine-2-carboxamide] was tested, and the IC50 (Full-length human MNK1; [2]) was 79.4 nM, the IC50 (Full-length human MNK2; [3]) was 63.1 nM and the IC50 [1] was 39.8 nM.

Work on CO[C@H]1CCCC[C@@H]1Oc1cc(F)ccc1Nc1ncnc2sc(C(=O)NCCCN(C)C)nc12 [Example 21] yielded an IC50 (Full-length human MNK2; [3]) of 1260 nM and an IC50 [1] of 316 nM.

Compound O=C(NCC1CCNCC1)c1nc2c(N3CCc4cc(Cl)ccc43)ncnc2s1 [Example 168, 7-(5-Chloroindolin-1-yl)-N-(4-piperidylmethyl)thiazolo[5,4-d]pyrimidine-2-carboxamide] has an IC50 (Full-length human MNK1; [2]) of 3.16 nM and an IC50 (Full-length human MNK2; [3]) of 3.16 nM.

For O=C(NCC1CCNCC1)c1nc2c(Nc3ccc(F)cc3OC(F)(F)F)ncnc2s1 [Example 59, 7-[4-fluoro-2-(trifluoromethoxy)anilino]-N-(4-piperidylmethyl)thiazolo[5,4-d]pyrimidine-2-carboxamide], the IC50 (Full-length human MNK2; [3]) was 1580 nM and the IC50 [1] was 631 nM.

O=C(NCCCN1CCCC1)c1nc2c(N3CCc4cc(F)ccc43)ncnc2s1 [Example 68] gave an IC50 (Full-length human MNK1) of 2 nM and an IC50 (Full-length human MNK2) of 2 nM.

Work on CN(C)CCCNC(=O)c1nc2c(N3CC(C)(C)c4ccccc43)ncnc2s1 [Example 25, N-[3-(Dimethylamino)propyl]-7-(3,3-dimethylindolin-1-yl)thiazolo[5,4-d]pyrimidine-2-carboxamide] yielded an IC50 (Full-length human MNK1; [2]) of 6.31 nM and an IC50 (Full-length human MNK2) of 3.98 nM.

For CN(C)CCCNC(=O)c1nc2c(N3CCc4ccccc43)ncnc2s1 [Example 27, N-[3-(Dimethylamino)propyl]-7-indolin-1-yl-thiazolo[5,4-d]pyrimidine-2-carboxamide], the IC50 (Full-length human MNK1; [2]) was 10 nM and the IC50 (Full-length human MNK2) was 7.94 nM.

CC(C)Oc1ccc2c(c1)CCN2c1ncnc2sc(C(=O)NC3CCOCC3)nc12 [Example 116, 7-(5-Isopropoxyindolin-1-yl)-N-tetrahydropyran-4-yl-thiazolo[5,4-d]pyrimidine-2-carboxamide] gave an IC50 (Full-length human MNK2; [3]) of 631 nM and an IC50 [1] of 501 nM.

CC(C)Oc1cc(F)ccc1Nc1ncnc2sc(C(=O)NCCN3CCNCC3)nc12 [Example 9, 7-(4-fluoro-2-isopropoxy-anilino)-N-(2-piperazin-1-ylethyl)thiazolo[5,4-d]pyrimidine-2-carboxamide] showed an IC50 (Full-length human MNK1; [2]) of 50.1 nM and an IC50 (Full-length human MNK2) of 31.6 nM.
